Test results taken from patent publication US20210094933A1, “RAPAFUCIN DERIVATIVE COMPOUNDS AND METHODS OF USE THEREOF” (The Johns Hopkins University, priority 2019, published 2021).
Numbered stars: 1 amine (or outer) side, 2 acyl side, 3 side chain; on linkers, the order of the positions; unused ones are H or OH. Square brackets hold non-standard residues; d marks the D form. Side chains are listed from the residue outwards. Peptide text beside a SMILES is read from it. * marks the point of attachment. X1 = COc1ccc(CC[C@@H](N[*:1])c2cccc(OCC(=O)[*:2])c2)cc1OC; X2 = CN(CCC=CC(=O)OCC(C)(C)C(=O)C(=O)[*:2])[*:1]; Pip = O=C(O)[C@@H]1CCCCN1; Morpholide = C1CN(*)CCO1; CO = O=C([*:1])[*:2]; Sar = CNCC(=O)O

Legend:
Type in all cases: cell-based
[1] = tested on: H929; assay: Cell proliferation assay (Prolif.), IC50 relative to DMSO control; conditions: H929 cells; class relative to DMSO control
Experimental: (§1) Cell Proliferation Assay (Prolif.) Guo et al. (2018) Nat. Chem. 11:254-63. Specific cell lines are indicated in each assay and cultured in complete growth media. Activity is scored according to the IC50 values relative to DMSO control. “Low” indicates an IC50 greater than 600 nM, “Medium” indicates an IC50 between 300 nM and 600 nM “High” indicates an IC50 less than 300 nM. “Rel.Uptake” refers to uptake activity characterization relative to a single concentration assay. “Low” indicates a response greater than 0.6 times the activity relative to DMSO, “Medium” indicates a response between 0.6 and 0.3 times the activity relative to DMSO, “High” indicates a response less than 0.3 times the activity relative to DMSO.

[2] = Cell proliferation assay, single concentration, response relative to DMSO; cell line indicated in each table; conditions: NCI-H929 cells
Experimental: as §1

[3] = Nucleoside uptake assay, single concentration (Rel.Uptake), response relative to DMSO; cell line indicated in each table
Experimental: (§2) Nucleoside Uptake Assay (uptake). Nuceloside uptake assays were performed with using 3H-Thymidine as described in Guo et al. (2018) Nat. Chem, 11:254-63. Specific cell lines are indicated in each assay and cultured in complete growth media. Activity is scored according to the IC50 values relative to DMSO control. “Low” indicates an IC50 greater than 600 nM, “Medium” indicates an IC50 between 300 nM and 600 nM “High” indicates an IC50 less than 300 nM. “Rel.Uptake” refers to uptake activity characterization relative to a single concentration assay. “Low” indicates a response greater than 0.6 times the activity relative to DMSO, “Medium” indicates a response between 0.6 and 0.3 times the activity relative to DMSO, “High” indicates a response less than 0.3 times the activity relative to DMSO.

[4] = tested on: 293T; assay: Nucleoside uptake assay (3H-Thymidine), IC50 relative to DMSO control; conditions: 293T cells
Experimental: as §2

[5] = nucleoside uptake, single concentration, 293T cells
[6] = 3H-Thymidine uptake, IC50 class relative to DMSO control
[7] = 293 T cells, single concentration
[8] = 293 T cells, nucleoside uptake at single concentration

SMILES | Uptake, 293T [4, 6] | Rel. Uptake, 293 T [3, 8] | other results
COc1ccc(CC[C@H]2OC(=O)[C@@H]3CCCCN3C(=O)C(=O)C(C)(C)COC(=O)C=CCCN(C)C(=O)[C@@H](Cc3ccccc3)NC(=O)CN(C)C(=O)[C@@H](Cc3ccccc3)NC(=O)[C@H](Cc3ccc(OC(=O)N4CCOCC4)cc3)N(C)C(=O)COc3cc(F)cc2c3)cc1OC [Compound 868] |  |  | Prolif. H929 [1]: low; Rel. Prolif., NCI-H929 [2]: low
COc1ccc(CC[C@H]2OC(=O)[C@@H]3CCCCN3C(=O)C(=O)C(C)(C)COC(=O)C=CCCN(C)C(=O)[C@@H](Cc3ccccc3)NC(=O)CN(C)C(=O)[C@@H](Cc3ccccc3)NC(=O)[C@H](Cc3ccc(OC(=O)N4CCOCC4)cc3)N(C)C(=O)CCC(=O)Nc3cccc2c3)cc1OC [Compound 869] |  |  | Prolif. H929 [1]: high; Rel. Prolif., NCI-H929 [2]: low
COc1ccc(CC[C@H]2NC(=O)[C@@H]3CCCCN3C(=O)C(=O)C(C)(C)COC(=O)C=CCCN(C)C(=O)[C@@H](Cc3ccccc3)NC(=O)CN(C)C(=O)[C@@H](Cc3ccccc3)NC(=O)[C@H](Cc3ccc(OC(=O)N4CCOCC4)cc3)NC(=O)COc3cccc2c3)cc1OC [Compound 877] (cyclo([Pip][X1]Y([CO-Morpholide])[dF][Sar][dF][X2])) |  |  | Prolif. H929 [1]: low; Rel. Prolif., NCI-H929 [2]: low
COc1ccc(CC[C@H]2OC(=O)[C@@H]3CCCCN3C(=O)C(=O)C(C)(C)COC(=O)C=CCCN(C)C(=O)[C@H](CC(C)C)N(C)C(=O)[C@H]3CCCN3C(=O)[C@H](CC(=O)OC(C)(C)C)N(C)C(=O)C(c3ccccc3)NC(=O)CCC(=O)Nc3cccc2c3)cc1OC (stereo partly drawn) [Compound 1066] | high |  | Rel. Uptake, 293 T [3, 5]: high
COc1ccc(CC[C@H]2OC(=O)[C@@H]3CCCCN3C(=O)C(=O)C(C)(C)COC(=O)C=CCCN(C)C(=O)[C@H](CC(C)C)N(C)C(=O)[C@H]3CCCN3C(=O)[C@H](Cc3ccc(CC(=O)OC(C)(C)C)cc3)NC(=O)C(c3ccccc3)NC(=O)CCC(=O)Nc3cccc2c3)cc1OC (stereo partly drawn) [Compound 1081] | medium |  | Rel. Uptake, 293 T [3, 5]: medium
COc1ccc(CC[C@H]2OC(=O)[C@@H]3CCCCN3C(=O)C(=O)C(C)(C)COC(=O)C=CCCN(C)C(=O)[C@H](CC(C)C)N(C)C(=O)[C@H]3CCCN3C(=O)[C@H](Cc3ccc(OCc4ccccc4)cc3)NC(=O)C(c3ccccc3)NC(=O)CCC(=O)Nc3cccc2c3)cc1OC (stereo partly drawn) [Compound 1082] | low |  | Rel. Uptake, 293 T [3, 5]: low
COc1ccc(CC[C@H]2OC(=O)[C@@H]3CCCCN3C(=O)C(=O)C(C)(C)COC(=O)C=CCCN(C)C(=O)[C@H](CC(C)C)N(C)C(=O)[C@H]3CCCN3C(=O)[C@H]3C[C@@H](NC(=O)OC(C)(C)C)CN3C(=O)C(c3ccccc3)NC(=O)CCC(=O)Nc3cccc2c3)cc1OC (stereo partly drawn) [Compound 1087] | low |  | Rel. Uptake, 293 T [3, 7]: low
COc1ccc(CC[C@H]2OC(=O)[C@@H]3CCCCN3C(=O)C(=O)C(C)(C)COC(=O)C=CCCN(C)C(=O)[C@H](CC(C)C)N(C)C(=O)[C@H]3CCCN3C(=O)[C@H](Cc3ccccc3)N(C)C(=O)[C@H](CC(=O)OC(C)(C)C)NC(=O)CCC(=O)Nc3cccc2c3)cc1OC [Compound 1088] | low |  | Rel. Uptake, 293 T [3, 7]: low
COc1ccc(CC[C@H]2OC(=O)[C@@H]3CCCCN3C(=O)C(=O)C(C)(C)COC(=O)C=CCCN(C)C(=O)[C@@H](c3ccccc3)NC(=O)[C@H](Cc3ccc(OP(C)(C)=O)cc3)NC(=O)[C@H]3CCCN3C(=O)[C@H](CC(C)C)N(C)C(=O)COc3cccc2c3)cc1OC [Compound 1520] | low | low | 
COc1ccc(CC[C@H]2OC(=O)[C@@H]3CCCCN3C(=O)C(=O)C(C)(C)COC(=O)C=CCCN(C)C(=O)[C@H](CC(C)C)N(C)C(=O)[C@H]3CCCN3C(=O)[C@H](Cc3ccc(O)cc3)NC(=O)C(c3ccccc3)NC(=O)CCC(=O)Nc3cccc2c3)cc1OC (stereo partly drawn) [Compound 1522] | high | high | 
COc1ccc(CC[C@H]2OC(=O)[C@@H]3CCCCN3C(=O)C(=O)C(C)(C)CNC(=O)C=CCCN(C)C(=O)[C@H](CC(C)C)N(C)C(=O)[C@H]3CCCN3C(=O)[C@H](Cc3ccccc3)N(C)C(=O)C(c3ccccc3)NC(=O)CCC(=O)Nc3cccc2c3)cc1OC (stereo partly drawn) [Compound 1555] | high | high | 
COc1ccc(CC[C@H]2OC(=O)[C@@H]3CCCCN3C(=O)C(=O)C(C)(C)COC(=O)C=CCCN(C)NC(c3ccccc3)C(=O)N(C)[C@@H](Cc3ccccc3)C(=O)N3CCC[C@@H]3C(=O)N(C)[C@@H](CC(C)C)C(=O)C(=O)CCOc3cccc2c3)cc1OC (stereo partly drawn) [Compound 1556] | low | low | 
COc1ccc(CC[C@H]2NC(=O)[C@@H]3CCCCN3C(=O)C(=O)C(C)(C)CNC(=O)C=CCCN(C)C(=O)[C@H](CC(C)C)N(C)C(=O)[C@H]3CCCN3C(=O)[C@H](Cc3ccccc3)N(C)C(=O)C(c3ccccc3)NC(=O)CCC(=O)Nc3cccc2c3)cc1OC (stereo partly drawn) [Compound 1557] | high | high | 
COc1ccc(CC[C@H]2OC(=O)[C@@H]3CCCCN3C(=O)C(=O)C(C)(C)COC(=O)C=CCCN(C)C(=O)[C@H](CC(C)C)N(C)C(=O)[C@H]3CCCN3C(=O)[C@H](Cc3ccc(C(=O)NCCO)cc3)NC(=O)[C@H](c3ccccc3)NC(=O)CCC(=O)Nc3cccc2c3)cc1OC [Compound 1558] |  | high | Uptake, 293T ([4]; Table 14): high
COc1ccc(CC[C@H]2OC(=O)[C@@H]3CCCCN3C(=O)C(=O)C(C)(C)COC(=O)C=CCCN(C)C(=O)[C@H](CC(C)C)N(C)C(=O)[C@H]3CCCN3C(=O)[C@H](Cc3ccc(C(=O)Nc4ccccc4)cc3)NC(=O)[C@H](c3ccccc3)NC(=O)CCC(=O)Nc3cccc2c3)cc1OC [Compound 1559] |  | medium | Uptake, 293T ([4]; Table 14): me- dium
COc1ccc(CC[C@H]2OC(=O)[C@@H]3CCCCN3C(=O)C(=O)C(C)(C)COC(=O)C=CCCN(C)C(=O)[C@H](CC(C)C)N(C)C(=O)[C@H]3CCCN3C(=O)[C@H](Cc3ccc(C(=O)Nc4cccnc4)cc3)NC(=O)[C@H](c3ccccc3)NC(=O)CCC(=O)Nc3cccc2c3)cc1OC [Compound 1562] |  | low | Uptake, 293T ([4]; Table 14): low
COc1ccc(CC[C@H]2OC(=O)[C@@H]3CCCCN3C(=O)C(=O)C(C)(C)COC(=O)C=CCCN(C)C(=O)[C@H](CC(C)C)N(C)C(=O)[C@H]3CCCN3C(=O)[C@H](Cc3ccc(CNC(=O)c4ccccc4)cc3)NC(=O)[C@H](c3ccccc3)NC(=O)CCC(=O)Nc3cccc2c3)cc1OC [Compound 1585] |  | High (“High” indicates a response less than 0.3 times the activity relative to DMSO) | IC50 ([4]; Table 13): < 300 nM
COc1ccc(CC[C@H]2OC(=O)[C@@H]3CCCCN3C(=O)C(=O)C(C)(C)COC(=O)C=CCCN(C)C(=O)[C@H](CC(C)C)N(C)C(=O)[C@H]3CCCN3C(=O)[C@H](Cc3ccc(CNC(=O)Cc4ccccc4)cc3)NC(=O)[C@H](c3ccccc3)NC(=O)CCC(=O)Nc3cccc2c3)cc1OC [Compound 1586] |  | Med | Uptake, 293T ([4]; Table 13): Med
COc1ccc(CC[C@H]2OC(=O)[C@@H]3CCCCN3C(=O)C(=O)C(C)(C)COC(=O)C=CCCN(C)C(=O)[C@H](CC(C)C)N(C)C(=O)[C@H]3CCCN3C(=O)[C@H](Cc3ccc(CNC(=O)CN(C)C)cc3)NC(=O)[C@H](c3ccccc3)NC(=O)CCC(=O)Nc3cccc2c3)cc1OC [Compound 1587] |  | Low (“Low” indicates a response greater than 0.6 times the activity relative to DMSO) | IC50 ([4]; Table 13): > 600 nM
COc1ccc(CC[C@H]2OC(=O)[C@@H]3CCCCN3C(=O)C(=O)C(C)(C)COC(=O)C=CCCN(C)C(=O)[C@H](CC(C)C)N(C)C(=O)[C@H]3CCCN3C(=O)[C@H](Cc3cccc(NC(C)=O)c3)NC(=O)[C@H](c3ccccc3)NC(=O)CCC(=O)Nc3cccc2c3)cc1OC [Compound 1588] |  | High (“High” indicates a response less than 0.3 times the activity relative to DMSO) | IC50 ([4]; Table 13): < 300 nM
COc1ccc(CC[C@H]2OC(=O)[C@@H]3CCCCN3C(=O)C(=O)C(C)(C)COC(=O)C=CCCN(C)C(=O)[C@H](CC(C)C)N(C)C(=O)[C@H]3CCCN3C(=O)[C@H](Cc3ccc(NC(=O)Cc4cccnc4)cc3)NC(=O)[C@H](c3ccccc3)NC(=O)CCC(=O)Nc3cccc2c3)cc1OC [Compound 1589] |  | Low (“Low” indicates a response greater than 0.6 times the activity relative to DMSO) | IC50 ([4]; Table 13): > 600 nM
